The test system of experiment [1] is panelists. As to the kind of experiment: Improvement in sweetness quality of sweeteners by additives, panel score (Example 14). The format is in vivo. As to conditions: for improvement in the sweetness quality of stevia extract: additive added to 0.03% stevia extract aqueous solution; for improvement in sweetness quality, average score of twelve panelists: vs sweetener alone, 2 improvement, 1 slight improvement, 0 no improvement. The procedure:
Aqueous solutions containing various sweeteners (stevia extract, siraitia grosvenori extract, licorice extract, thaumatin, aspartame, and neotame) in the concentrations shown in Table 20 were prepared. […] The evaluation was conducted by scoring the improvement in sweetness quality based on the criteria described below in comparison with an aqueous solution containing only each of the sweeteners (Control).

Experiment [2] concerns panelists. The description is as above. The experiment is classed as in vivo. Particulars: additive added to 0.03% stevia extract aqueous solution.
Experiment [3] can be described thus: Concentration of sweetener with the same degree of sweetness as a 6% aqueous sucrose solution (Example 14, Table 20). The format is in vivo. The procedure:
Aqueous solutions containing various sweeteners (stevia extract, siraitia grosvenori extract, licorice extract, thaumatin, aspartame, and neotame) in the concentrations shown in Table 20 were prepared.

Experiment [4] is described as follows: Concentration having the same degree of sweetness as a 5% aqueous sucrose solution (Example 1, Table 1). The format is in vivo. The source says:
The degree of sweetness of rebaudioside A and that of mogroside V depends on the pH. […] Citric acid and trisodium citrate were used to prepare pH3 and pH4.5 solutions, and sodium bicarbonate was used to prepare pH7 solutions.

The conditions of experiment [5]: general statement in description; cited from earlier work.
Where [6] appears, read: additive Gentiooligosaccharide (Gentose#45) 0.4%.
[7] abbreviates: additive Highly branched cyclic dextrin (Cluster Dextrin) 0.07%.
Where [8] appears, read: additive Magnesium chloride 0.05%.
[9] abbreviates: additive Magnesium sulfate 0.05%.

Peptide text beside a SMILES is read from it.

As to `O=S(=O)([O-])[O-].[Mg+2]` [Magnesium sulfate, magnesium sulfate], in the experiment with panelists [1], the “improvement in the sweetness quality of stevia extract” value was “remarkably excellent improvements”. For the same compound, in the experiment with panelists [2], the “remaining aftertaste of sweetness in stevia extract” value (shortened to “remaining aftertaste of sweetness”) is “reduced” and the “richness (body) of stevia extract” value was “increased”.

With `COC(=O)[C@H](Cc1ccccc1)NC(=O)[C@@H](N)CC(=O)O` [Aspartame, aspartame] (H-Asp-Phe-OMe), the “Concentration (%) exhibiting the same degree of sweetness as a 6% aqueous sucrose solution” value (shortened to “Concentration … as a 6% aqueous sucrose solution”) in experiment [3] is recorded as 0.038%. Besides, the “improvement in sweetness quality, average score of twelve panelists” value (from here on “improvement in sweetness quality”) with panelists [1] (setting [6]) was 0.3 points; in the experiment with panelists [1] (setting [7]) it was 0.3 points; with panelists [1] (setting [8]) it was 0.8 points; in the experiment on panelists [1] (setting [9]) it was 0.7 points; in the experiment on panelists [1] (additive Naringin 0.0025%) it was 0.3 points.

In the case of `C=C1C[C@@]23CC[C@H]4[C@@](C)(CCC[C@@]4(C)C(=O)O[C@@H]4O[C@H](CO)[C@@H](O)[C@H](O)[C@H]4O)[C@@H]2CC[C@]1(O[C@@H]1O[C@H](CO)[C@@H](O)[C@H](O[C@@H]2O[C@H](CO)[C@@H](O)[C@H](O)[C@H]2O)[C@H]1O[C@@H]1O[C@H](CO)[C@@H](O)[C@H](O)[C@H]1O)C3` [Rebaudioside A, rebaudioside A], the “concentration having the same degree of sweetness as a 5% aqueous sugar solution” value came to 0.0228% in experiment [4] (pH 3, substance singly); 0.0219% in experiment [4] (pH 4.5, substance singly); 0.02% in experiment [4] (pH 7, substance singly).

Regarding thaumatin, the “Concentration … as a 6% aqueous sucrose solution” value in experiment [3] stood at 0.0024%. Also, the “improvement in sweetness quality” value in the experiment with panelists [1] (setting [6]) amounted to 0.8 points; with panelists [1] (setting [7]), 0.5 points; with panelists [1] (setting [8]), 1.0 points; in the experiment on panelists [1] (setting [9]), 1.3 points; in the experiment with panelists [1] (additive Naringin 0.0025%), 0.7 points.

As for `C[C@@H]1O[C@@H](O[C@H]2[C@H](Oc3cc(O)c4c(c3)O[C@H](c3ccc(O)cc3)CC4=O)O[C@H](CO)[C@@H](O)[C@@H]2O)[C@H](O)[C@H](O)[C@H]1O` [Naringin, naringin], in the experiment with panelists [2], the “remaining aftertaste of sweetness” value is on record as “reduced” and the “richness (body) of stevia extract” value is listed as “increased”.

As to `[Cl-].[Cl-].[Mg+2]` [Magnesium chloride, magnesium chloride], the “improvement in the sweetness quality of stevia extract” value in the experiment on panelists [1] was “remarkably excellent improvements”. For the same compound, in the experiment on panelists [2], the “remaining aftertaste of sweetness” value is recorded as “reduced” and the “richness (body) of stevia extract” value is “increased”.

As for `COC(=O)[C@H](Cc1ccccc1)NC(=O)[C@H](CC(=O)O)NCCC(C)(C)C` [Neotame, neotame], the “Concentration … as a 6% aqueous sucrose solution” value in experiment [3] turned out to be 0.0008%. In addition, the “improvement in sweetness quality” value with panelists [1] (setting [6]) came to 0.8 points; in the experiment with panelists [1] (setting [7]), 0.8 points; with panelists [1] (setting [8]), 0.8 points; with panelists [1] (setting [9]), 0.8 points; in the experiment on panelists [1] (additive Naringin 0.0025%), 1.0 points.

`C[C@H](CC[C@@H](O[C@@H]1O[C@H](CO[C@@H]2O[C@H](CO)[C@@H](O)[C@H](O)[C@H]2O)[C@@H](O)[C@H](O)[C@H]1O[C@@H]1O[C@H](CO)[C@@H](O)[C@H](O)[C@H]1O)C(C)(C)O)[C@H]1CC[C@@]2(C)[C@@H]3CC=C4[C@@H](CC[C@H](O[C@@H]5O[C@H](CO[C@@H]6O[C@H](CO)[C@@H](O)[C@H](O)[C@H]6O)[C@@H](O)[C@H](O)[C@H]5O)C4(C)C)[C@]3(C)[C@H](O)C[C@]12C` [Mogroside V, mogroside V]: the “concentration having the same degree of sweetness as a 5% aqueous sugar solution” value in experiment [4] (pH 3, substance singly) is 0.03%; in experiment [4] (pH 4.5, substance singly), 0.03%; in experiment [4] (pH 7, substance singly) it was 0.0255%. Also, the “degree of sweetness (sweetness intensity)” value in experiment [5] is recorded as “about 300 times that of sucrose”.

These data come from patent US9044038B2, “Method of improving sweetness qualities of stevia extract” (SAN-EI GEN F.F.I., INC., priority 2007, dated 2015).
